PubChem BioAssay (NCI)
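All cell lines were grown in 96-well plates and treated with compound for 48 hours. Abbreviation: GI50, concentration required for 50% inhibition of growth. The concentration for full growth arrest is given as TGI.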

Legend:
Assay in all cases: DTP human tumour cell line panel, 48 h
A549 NSCLC = system: A549 NSCLC
RXF 393 renal = system: RXF 393 renal
HOP-62 NSCLC = system: HOP-62 NSCLC
ACHN renal = system: ACHN renal
NCI-H460 lung = system: NCI-H460 lung
NCI-H522 lung = system: NCI-H522 lung
UACC-257 melanoma = system: UACC-257 melanoma
HCC-2998 colon = system: HCC-2998 colon
HCT-15 colon = system: HCT-15 colon
LOX IMVI melanoma = system: LOX IMVI melanoma
SW-620 colon = system: SW-620 colon
SNB-75 CNS = system: SNB-75 CNS
KM12 colon = system: KM12 colon
HCT-116 colon = system: HCT-116 colon
NCI/ADR-RES ovarian = system: NCI/ADR-RES ovarian
HS 578T breast = system: HS 578T breast
DU-145 prostate = system: DU-145 prostate
UACC-62 melanoma = system: UACC-62 melanoma
MDA-MB-435 = system: MDA-MB-435
BT-549 breast = system: BT-549 breast
OVCAR-4 ovarian = system: OVCAR-4 ovarian
SF-295 CNS = system: SF-295 CNS
MDA-MB-468 breast = system: MDA-MB-468 breast
A498 renal = system: A498 renal
COLO 205 colon = system: COLO 205 colon
SN12C renal = system: SN12C renal
MDA-MB-231 breast = system: MDA-MB-231 breast
CCRF-CEM leukemia = system: CCRF-CEM leukemia
SK-MEL-28 melanoma = system: SK-MEL-28 melanoma
HT29 colon = system: HT29 colon

Structure (SMILES): O=C(N/N=C/c1ccc(B(O)O)s1)c1[nH]c2ccc(Br)cc2c1-c1ccccc1
- TGI (A549 NSCLC): 13400 nM
- GI50 (RXF 393 renal): 343 nM
- TGI (RXF 393 renal): 13600 nM
- GI50 (HOP-62 NSCLC): 557 nM
- TGI (HOP-62 NSCLC): 11800 nM
- GI50 (ACHN renal): 512 nM
- TGI (ACHN renal): 14000 nM
- GI50 (NCI-H460 lung): 363 nM
- TGI (NCI-H460 lung): 4100 nM
- GI50 (NCI-H522 lung): 208 nM
- TGI (NCI-H522 lung): 549 nM
- GI50 (UACC-257 melanoma): 1250 nM
- TGI (UACC-257 melanoma): 18200 nM
- GI50 (HCC-2998 colon): 364 nM
- TGI (HCC-2998 colon): 5810 nM
- GI50 (HCT-15 colon): 340 nM
- TGI (HCT-15 colon): 8830 nM
- GI50 (LOX IMVI melanoma): 350 nM
- TGI (LOX IMVI melanoma): 6220 nM
- GI50 (SW-620 colon): 395 nM
- TGI (SW-620 colon): 14800 nM
- GI50 (SNB-75 CNS): 316 nM
- TGI (SNB-75 CNS): 5630 nM
- GI50 (KM12 colon): 342 nM
- TGI (KM12 colon): 4900 nM
- GI50 (HCT-116 colon): 331 nM
- TGI (HCT-116 colon): 4340 nM
- GI50 (NCI/ADR-RES ovarian): 238 nM
- TGI (NCI/ADR-RES ovarian): 587 nM
- GI50 (HS 578T breast): 296 nM
- TGI (HS 578T breast): 3440 nM
- GI50 (DU-145 prostate): 367 nM
- TGI (DU-145 prostate): 11600 nM
- GI50 (UACC-62 melanoma): 395 nM
- TGI (UACC-62 melanoma): 5920 nM
- GI50 (MDA-MB-435): 250 nM
- TGI (MDA-MB-435): 647 nM
- GI50 (BT-549 breast): 348 nM
- TGI (BT-549 breast): 1020 nM
- GI50 (OVCAR-4 ovarian): 3560 nM
- TGI (OVCAR-4 ovarian): 24100 nM
- GI50 (SF-295 CNS): 299 nM
- TGI (SF-295 CNS): 5380 nM
- GI50 (MDA-MB-468 breast): 235 nM
- TGI (MDA-MB-468 breast): 572 nM
- GI50 (A498 renal): 8500 nM
- TGI (A498 renal): 21600 nM
- GI50 (COLO 205 colon): 231 nM
- TGI (COLO 205 colon): 515 nM
- GI50 (SN12C renal): 374 nM
- TGI (SN12C renal): 8110 nM
- GI50 (MDA-MB-231 breast): 339 nM
- TGI (MDA-MB-231 breast): 11300 nM
- GI50 (CCRF-CEM leukemia): 366 nM
- TGI (CCRF-CEM leukemia): 12600 nM
- GI50 (SK-MEL-28 melanoma): 856 nM
- TGI (SK-MEL-28 melanoma): 16700 nM
- GI50 (HT29 colon): 290 nM
- TGI (HT29 colon): 992 nM
